In ChEMBL document CHEMBL2375222, “Synthesis of 1H-1,2,3-triazole linked β-lactam-isatin bi-functional hybrids and preliminary analysis of in vitro activity against the protozoal parasite Trichomonas vaginalis” (Eur J Med Chem, 2013):

Legend:
Trichomonas vaginalis [1] = assay: […] activity against Trichomonas vaginalis G3 at 10 uM after 24 hrs by hemocytometry; assay type: functional; conditions: G3, 24 h
Trichomonas vaginalis [2] = assay: […] activity against Trichomonas vaginalis G3 at 100 uM after 24 hrs by hemocytometry; assay type: functional; conditions: G3, 24 h
CHO-K1 [3] = assay: Cytotoxicity against CHOK1 cells assessed as change in cell morphology at 100 uM by light microscopy; assay type: cell-based, Cricetulus griseus; conditions: chinese hamster, cho-k1, 100 µM
Trichomonas vaginalis [4] = assay: […] activity against Trichomonas vaginalis G3 after 24 hrs by hemocytometry; assay type: functional; conditions: G3, 24 h
CHO-K1 [5] = assay: Cytotoxicity against CHOK1 cells assessed as change in cell morphology by light microscopy; assay type: cell-based; conditions: Cricetulus griseus

Compound | inhibition at 10 µM (Trichomonas vaginalis [1]) [%] | inhibition at 100 µM (Trichomonas vaginalis [2]) [%] | Activity (CHO-K1 [3]) | IC50 (Trichomonas vaginalis [4]) [µM] | IC50 (CHO-K1 [5]) [µM]
Cc1ccc2c(c1)C(=O)C(=O)N2Cc1cn([C@@H]2C(=O)N(c3ccccc3)[C@@H]2/C=C/c2ccccc2)nn1 | 0 | 82.6 | Toxic | – | –
Cc1ccc(N2C(=O)[C@@H](n3cc(CN4C(=O)C(=O)c5ccccc54)nn3)[C@H]2/C=C/c2ccccc2)cc1 | 4.9 | 100 | Toxic | 27.5 | –
O=C1C(=O)N(Cc2cn([C@@H]3C(=O)N(C4CCCCC4)[C@@H]3/C=C/c3ccccc3)nn2)c2ccccc21 | 26.8 | 100 | Toxic | – | –
O=C1C(=O)N(Cc2cn([C@@H]3C(=O)N(Cc4ccccc4)[C@@H]3/C=C/c3ccccc3)nn2)c2ccc(Cl)cc21 (relative stereo) | 7.3 | 67.4 | Toxic | – | –
O=C1C(=O)N(Cc2cn([C@@H]3C(=O)N(c4ccc(F)cc4)[C@@H]3/C=C/c3ccccc3)nn2)c2ccccc21 (relative stereo) | 38.5 | 100 | – | 7.69 | 7.69
O=C1C(=O)N(Cc2cn([C@@H]3C(=O)N(c4ccc(F)cc4)[C@@H]3/C=C/c3ccccc3)nn2)c2ccc(F)cc21 (relative stereo) | 19.5 | 100 | Toxic | – | –
O=C1C(=O)N(Cc2cn([C@@H]3C(=O)N(c4ccc(F)cc4)[C@@H]3/C=C/c3ccccc3)nn2)c2ccc(Cl)cc21 (relative stereo) | 14.6 | 100 | Toxic | – | –
O=C1C(=O)N(Cc2cn([C@@H]3C(=O)N(c4ccc(F)cc4)[C@@H]3/C=C/c3ccccc3)nn2)c2ccc(Br)cc21 (relative stereo) | 0 | 100 | Toxic | – | –
O=C1C(=O)N(Cc2cn([C@@H]3C(=O)N(c4ccccc4)[C@@H]3/C=C/c3ccccc3)nn2)c2ccccc21 (relative stereo) | 100 | 100 | Toxic | – | –
O=C1C(=O)N(Cc2cn([C@@H]3C(=O)N(c4ccccc4)[C@@H]3/C=C/c3ccccc3)nn2)c2ccc(F)cc21 (relative stereo) | 58.5 | 100 | Toxic | 7.06 | –
O=C1C(=O)N(Cc2cn([C@@H]3C(=O)N(c4ccccc4)[C@@H]3/C=C/c3ccccc3)nn2)c2ccc(Cl)cc21 (relative stereo) | 61 | 100 | Toxic | 9.82 | –
O=C1C(=O)N(Cc2cn([C@@H]3C(=O)N(c4ccccc4)[C@@H]3/C=C/c3ccccc3)nn2)c2ccc(Br)cc21 (relative stereo) | 83 | 100 | Toxic | 9.34 | –
O=C1C(=O)N(Cc2cn([C@@H]3C(=O)N(c4ccc(Cl)cc4)[C@@H]3/C=C/c3ccccc3)nn2)c2ccccc21 (relative stereo) | 80.5 | 100 | Toxic | 8.27 | –
O=C1C(=O)N(Cc2cn([C@@H]3C(=O)N(c4ccc(Cl)cc4)[C@@H]3/C=C/c3ccccc3)nn2)c2ccc(Cl)cc21 (relative stereo) | 53.7 | 100 | Toxic | 9.94 | –
Cc1ccc(N2C(=O)[C@@H](n3cc(CN4C(=O)C(=O)c5cc(F)ccc54)nn3)[C@H]2/C=C/c2ccccc2)cc1 (relative stereo) | 58.5 | 100 | Toxic | 22.1 | –
Cc1ccc(N2C(=O)[C@@H](n3cc(CN4C(=O)C(=O)c5cc(Cl)ccc54)nn3)[C@H]2/C=C/c2ccccc2)cc1 (relative stereo) | 48.8 | 100 | Toxic | 10.1 | –
O=C1C(=O)N(Cc2cn([C@@H]3C(=O)N(C4CCCCC4)[C@@H]3/C=C/c3ccccc3)nn2)c2ccc(F)cc21 (relative stereo) | 0 | 100 | Toxic | – | –
O=C1C(=O)N(Cc2cn([C@@H]3C(=O)N(C4CCCCC4)[C@@H]3/C=C/c3ccccc3)nn2)c2ccc(Cl)cc21 (relative stereo) | 7.3 | 100 | Toxic | – | –
O=C1C(=O)N(Cc2cn([C@@H]3C(=O)N(C4CCCCC4)[C@@H]3/C=C/c3ccccc3)nn2)c2ccc(Br)cc21 (relative stereo) | 4.9 | 100 | Toxic | – | –
Cc1ccc2c(c1)C(=O)C(=O)N2Cc1cn([C@@H]2C(=O)N(C3CCCCC3)[C@@H]2/C=C/c2ccccc2)nn1 (relative stereo) | 9.8 | 95.7 | Toxic | 44.5 | –
O=C1C(=O)N(Cc2cn([C@@H]3C(=O)N(Cc4ccccc4)[C@@H]3/C=C/c3ccccc3)nn2)c2ccccc21 (relative stereo) | 7.8 | 100 | Toxic | 8.68 | –
O=C1C(=O)N(Cc2cn([C@@H]3C(=O)N(Cc4ccccc4)[C@@H]3/C=C/c3ccccc3)nn2)c2ccc(F)cc21 (relative stereo) | 0 | 19.6 | Toxic | – | –
